Results published in US9980948B2, “Azaindole derivative having AMPK-activating activity” (Shionogi & Co., Ltd., priority 2014, dated 2018).
Where two headings read alike, the source gives them in different places.

Molecular target: T1, Human AMPK α2β2γ1 (Homo sapiens, UniProt O43741+P54646)
T1 construct: The full length cDNAs of human AMPK β2 (NM_005399.3) and human AMPK α2 (NM_006252.3); The full length cDNAs of human AMPK β2 (NM_005399.3); the full length cDNA of human AMPK γ1 (NM_002733.3) had been inserted into pET28b(+); 6xHis (N); made in house; host or cells: Escherichia coli BL21 CodonPlus (DE3)-RTL (AMPK); BL21 Star (DE3) (CaMKKβ)
T1 sequence (P54646 whole entry): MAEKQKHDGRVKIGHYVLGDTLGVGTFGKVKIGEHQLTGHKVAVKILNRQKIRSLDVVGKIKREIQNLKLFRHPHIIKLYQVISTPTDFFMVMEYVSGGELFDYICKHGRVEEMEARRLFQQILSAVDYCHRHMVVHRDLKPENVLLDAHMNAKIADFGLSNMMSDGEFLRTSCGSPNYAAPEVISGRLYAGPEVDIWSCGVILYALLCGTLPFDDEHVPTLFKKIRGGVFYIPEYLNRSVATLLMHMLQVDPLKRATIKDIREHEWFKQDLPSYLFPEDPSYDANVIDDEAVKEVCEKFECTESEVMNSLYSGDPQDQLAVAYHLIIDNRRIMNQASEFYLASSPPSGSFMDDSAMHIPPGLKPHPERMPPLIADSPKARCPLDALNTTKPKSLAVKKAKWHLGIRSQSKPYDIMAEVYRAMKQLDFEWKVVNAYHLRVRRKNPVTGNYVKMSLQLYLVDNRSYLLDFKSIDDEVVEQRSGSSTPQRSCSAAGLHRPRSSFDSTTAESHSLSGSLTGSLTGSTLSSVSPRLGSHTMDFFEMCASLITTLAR
T1 sequence (O43741 whole entry): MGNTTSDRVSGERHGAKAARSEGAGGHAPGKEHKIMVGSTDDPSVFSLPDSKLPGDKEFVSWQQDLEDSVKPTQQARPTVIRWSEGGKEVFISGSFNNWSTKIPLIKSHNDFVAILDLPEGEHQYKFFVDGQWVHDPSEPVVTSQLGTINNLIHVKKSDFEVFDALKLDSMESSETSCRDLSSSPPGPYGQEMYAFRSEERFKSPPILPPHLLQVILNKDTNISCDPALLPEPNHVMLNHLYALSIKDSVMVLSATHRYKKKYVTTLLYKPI
T1 sequence (P54619 whole entry partner): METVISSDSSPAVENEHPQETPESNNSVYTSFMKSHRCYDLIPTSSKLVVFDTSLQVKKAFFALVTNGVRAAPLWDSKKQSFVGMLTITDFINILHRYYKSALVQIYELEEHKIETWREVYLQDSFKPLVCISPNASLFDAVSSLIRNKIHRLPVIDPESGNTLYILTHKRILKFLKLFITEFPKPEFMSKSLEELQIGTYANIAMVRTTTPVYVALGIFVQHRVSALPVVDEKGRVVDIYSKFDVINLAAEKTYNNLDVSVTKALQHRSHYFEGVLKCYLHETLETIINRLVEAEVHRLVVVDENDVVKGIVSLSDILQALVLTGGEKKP
Experiment: Test Example 2: evaluation of an activator for AMP-activated protein kinase (AMPK), human AMPK α2β2γ1 phosphorylated with CaMKK2, FL-Peptide 7 mobility shift
Assay type: biochemical
Settings: for EC150 (compound concentration showing 150% relative to the control (100%)): human AMPK α2β2γ1, 0.2 mM ATP final, 25° C., 2 hours; for Emax: read-out: Emax (maximum rate of increase in activity within the measurement range)
Procedure: The full length cDNAs of human AMPK β2 (NM_005399.3) and human AMPK α2 (NM_006252.3) were inserted into the MCS1 and MCS2 of the pETDuet-1 vector to prepare a human AMPK β2 and human AMPK α2 (6× His tag at the 5′ terminus) expressing plasmid. The plasmid was cotransfected with an expression plasmid, in which the full length cDNA of human AMPK γ1 (NM_002733.3) had been inserted into pET28b(+), into BL21 CodonPlus (DE3)-RTL to obtain an expression strain. The expression strain was cultured in TB medium, followed by induction with 0.5 mM IPTG, and cultured at 25° C. for 3 hours and then harvested.
An expression vector, in which the full length cDNA of human CAMKK β (NM_172226.1) had been inserted into pGEX-6P-3, was transfected into BL21 Star (DE3). The expression strain was cultured in TB medium, followed by induction with 0.5 mM IPTG, and cultured at 25° C. for 3 hours and then harvested.
Thus, phosphorylation treatment was carried out as pretreatment.
Human AMPK α2β2γ1 in an amount to give a conversion rate of approximately 10% by reaction for 2 hours, and CaMKK2 in an amount capable of sufficiently imparting activity to AMPK for one hour were mixed in a buffer solution consisting of a 50 mM HEPES-NaOH buffer solution (pH 7.0), 100 mM NaCl, 5 mM magnesium chloride, 0.1% bovine serum albumin, 0.2 mM sodium orthovanadate(V), 1 mM ethylene glycol-bis(2-aminoethyl ether)-N,N,N′,N′-tetraacetic acid (EGTA), 5 mM disodium β-glycerophosphate, 1 mM dithiothreitol and 0.2 mM ATP, and the obtained liquid was left to stand at 25° C. for 1 to 1.5 hours to sufficiently phosphorylate AMPK.
The obtained liquid was left to stand for 10 minutes.
The obtained liquid was allowed to react at 25° C. for 2 hours, and 10 μl of 20 mM EDTA was then added thereto to stop the reaction.
To detect phosphorylated fluorescent substrates, the reaction liquid was applied to a measuring device, LabChip EZ Reader II manufactured by Caliper Life Science, Inc., for detecting fluorescence by using differences in mobility due to differences in charge. The setting conditions for the device were pressure, −1.5 PSI; upstream voltage, −2250 V; downstream voltage, −400 V; post sample buffer sip time, 40 seconds; final delay, 120 seconds; and peak order, Product First.
A conversion rate was calculated from the peak heights of the resulting substrate and product. The conversion rate when not containing a compound was used as a control, and a concentration dependent curve was made by plotting the rate of increase in activity to the control at each concentration of a compound.

[1] = human AMPK α2β2γ1, relative to control (100%)

O[C@@H]1CO[C@H]2[C@@H]1OC[C@H]2Oc1cc2nc(-c3ccc4scnc4c3)c(F)cc2[nH]1 [Compound I-3-14]
EC150 (compound concentration showing 150% relative to the control (100%)): 150 nM
Emax [1]: 430%

N#Cc1cc2[nH]c(O[C@@H]3CO[C@H]4[C@@H]3OC[C@H]4O)cc2nc1NC1CCc2cc(F)cc(F)c21 (stereo partly shown) [Compound I-3-17]
EC150 (compound concentration showing 150% relative to the control (100%)): 40 nM
Emax [1]: 492%

O[C@@H]1CO[C@H]2[C@@H]1OC[C@H]2Oc1cc2nc(NC3CCc4cc(F)cc(F)c43)c(C(F)(F)F)cc2[nH]1 (stereo partly shown) [Compound I-3-19]
EC150 (compound concentration showing 150% relative to the control (100%)): 120 nM
Emax [1]: 543%

O[C@@H]1CO[C@H]2[C@@H]1OC[C@H]2Oc1cc2nc(-c3ccc(-c4ccsc4)cc3)c(F)cc2[nH]1 [Compound I-3-23]
EC150 (compound concentration showing 150% relative to the control (100%)): 5 nM
Emax [1]: 510%

O[C@@H]1CO[C@H]2[C@@H]1OC[C@H]2Oc1cc2nc(-c3ccsc3)c(F)cc2[nH]1 [Compound I-3-24]
EC150 (compound concentration showing 150% relative to the control (100%)): 340 nM
Emax [1]: 315%

Cn1cc(-c2ccc(-c3nc4cc(O[C@@H]5CO[C@H]6[C@@H]5OC[C@H]6O)[nH]c4cc3F)cc2)cn1 [Compound I-3-25]
EC150 (compound concentration showing 150% relative to the control (100%)): 6.6 nM
Emax [1]: 493%

COc1nc(N2CCCC2)ccc1-c1nc2cc(O[C@@H]3CO[C@H]4[C@@H]3OC[C@H]4O)[nH]c2cc1F [Compound I-3-27]
EC150 (compound concentration showing 150% relative to the control (100%)): 12 nM
Emax [1]: 633%

COc1cc(F)c(-c2nc3cc(O[C@@H]4CO[C@H]5[C@@H]4OC[C@H]5O)[nH]c3cc2F)c(F)c1 [Compound I-3-28]
EC150 (compound concentration showing 150% relative to the control (100%)): 87 nM
Emax [1]: 430%

O=C(CO)NCCCOc1ccc(-c2nc3cc(O[C@@H]4CO[C@H]5[C@@H]4OC[C@H]5O)[nH]c3cc2F)cc1 [Compound I-3-31]
EC150 (compound concentration showing 150% relative to the control (100%)): 55 nM
Emax [1]: 505%

O[C@@H]1CO[C@H]2[C@@H]1OC[C@H]2Oc1cc2nc(-c3ccc(N4CCOCC4)cc3F)c(C(F)(F)F)cc2[nH]1 [Compound I-3-39]
EC150 (compound concentration showing 150% relative to the control (100%)): 200 nM
Emax [1]: 491%

CS(C)(=O)=Nc1ccc(-c2ccc(-c3nc4cc(O[C@@H]5CO[C@H]6[C@@H]5OC[C@H]6O)[nH]c4cc3F)cc2)cc1 [Compound I-3-40]
EC150 (compound concentration showing 150% relative to the control (100%)): 0.91 nM
Emax: 491%

COc1cc(C2=CCOCC2)ccc1-c1nc2cc(O[C@@H]3CO[C@H]4[C@@H]3OC[C@H]4O)[nH]c2cc1F [Compound I-3-41]
EC150 (compound concentration showing 150% relative to the control (100%)): 31 nM
Emax [1]: 500%

CS(=N)(=O)c1ccc(-c2ccc(-c3nc4cc(O[C@@H]5CO[C@H]6[C@@H]5OC[C@H]6O)[nH]c4cc3F)cc2)cc1 (stereo partly shown) [Compound I-3-43]
EC150 (compound concentration showing 150% relative to the control (100%)): 0.84 nM
Emax [1]: 538%

CN=S(C)(=O)c1ccc(-c2ccc(-c3nc4cc(O[C@@H]5CO[C@H]6[C@@H]5OC[C@H]6O)[nH]c4cc3F)cc2)cc1 (stereo partly shown) [Compound I-4-1]
EC150 (compound concentration showing 150% relative to the control (100%)): 1.4 nM
Emax [1]: 496%

CS(C)(=O)=Nc1ccc(-c2ccc(-c3nc4cc(O[C@@H]5CO[C@H]6[C@@H]5OC[C@H]6O)[nH]c4cc3F)c(F)c2)cc1 [Compound I-4-5]
EC150 (compound concentration showing 150% relative to the control (100%)): 3.2 nM
Emax [1]: 510%

CS(C)(=O)=NC1CC=C(c2ccc(-c3nc4cc(O[C@@H]5CO[C@H]6[C@@H]5OC[C@H]6O)[nH]c4cc3F)cc2)CC1 (stereo partly shown) [Compound I-4-17]
EC150 (compound concentration showing 150% relative to the control (100%)): 2.9 nM
Emax [1]: 511%

CN=S(C)(=O)c1ccc(-c2ccc(-c3nc4cc(O[C@@H]5CO[C@H]6[C@@H]5OC[C@H]6O)[nH]c4cc3C(F)(F)F)cc2)cc1 (stereo partly shown) [Compound I-4-18]
EC150 (compound concentration showing 150% relative to the control (100%)): 9.5 nM
Emax [1]: 598%

CS(=O)(=NCCO)c1ccc(-c2ccc(-c3nc4cc(O[C@@H]5CO[C@H]6[C@@H]5OC[C@H]6O)[nH]c4cc3F)cc2)cc1 (stereo partly shown) [Compound I-4-31]
EC150 (compound concentration showing 150% relative to the control (100%)): 3.1 nM
Emax [1]: 674%

CNS(=O)(=O)Nc1ccc(-c2ccc(-c3nc4cc(O[C@@H]5CO[C@H]6[C@@H]5OC[C@H]6O)[nH]c4cc3F)cc2)cc1 [Compound I-4-34]
EC150 (compound concentration showing 150% relative to the control (100%)): 4 nM
Emax [1]: 431%

COC(=O)Nc1ccc(-c2ccc(-c3nc4cc(O[C@@H]5CO[C@H]6[C@@H]5OC[C@H]6O)[nH]c4cc3F)cc2)cc1 [Compound I-4-35]
EC150 (compound concentration showing 150% relative to the control (100%)): 10 nM
Emax [1]: 447%

CN=S(C)(=O)c1ccc(-c2ccc(-c3nc4cc(O[C@@H]5CO[C@H]6[C@@H]5OC[C@H]6O)[nH]c4cc3F)cc2)cc1 (stereo partly shown) [Compound I-4-36]
EC150 (compound concentration showing 150% relative to the control (100%)): 2.3 nM
Emax [1]: 510%

CN=S(C)(=O)c1ccc(-c2ccc(-c3nc4cc(O[C@@H]5CO[C@H]6[C@@H]5OC[C@H]6O)[nH]c4cc3F)cc2)cc1 (stereo partly shown) [Compound I-4-37]
EC150 (compound concentration showing 150% relative to the control (100%)): 1.5 nM
Emax (maximum rate of increase in activity within the measurement range) [1]: 502%

CNS(=O)(=O)c1ccc(-c2ccc(-c3nc4cc(O[C@@H]5CO[C@H]6[C@@H]5OC[C@H]6O)[nH]c4cc3F)cc2)cc1 [Compound I-4-39]
EC150 (compound concentration showing 150% relative to the control (100%)): 1.9 nM
Emax [1]: 479%

CS(=O)(=O)c1ccc(-c2ccc(-c3nc4cc(O[C@@H]5CO[C@H]6[C@@H]5OC[C@H]6O)[nH]c4cc3F)cc2)nc1 [Compound I-4-41]
EC150 (compound concentration showing 150% relative to the control (100%)): 1.4 nM
Emax [1]: 441%

CCS(C)(=O)=Nc1ccc(-c2ccc(-c3nc4cc(O[C@@H]5CO[C@H]6[C@@H]5OC[C@H]6O)[nH]c4cc3F)cc2)cc1 (stereo partly shown) [Compound I-4-43]
EC150 (compound concentration showing 150% relative to the control (100%)): 1.3 nM
Emax [1]: 453%

NC(=O)Nc1ccc(-c2ccc(-c3nc4cc(O[C@@H]5CO[C@H]6[C@@H]5OC[C@H]6O)[nH]c4cc3F)cc2)cc1 [Compound I-4-44]
EC150 (compound concentration showing 150% relative to the control (100%)): 1.6 nM
Emax [1]: 518%

COC(=O)NC1CCN(c2ccc(-c3nc4cc(O[C@@H]5CO[C@H]6[C@@H]5OC[C@H]6O)[nH]c4cc3F)cc2)CC1 [Compound I-4-53]
EC150 (compound concentration showing 150% relative to the control (100%)): 10 nM
Emax [1]: 509%

CS(=O)(=O)Nc1ccc(-c2ccc(-c3nc4cc(O[C@@H]5CO[C@H]6[C@@H]5OC[C@H]6O)[nH]c4cc3F)cc2)nc1 [Compound I-4-56]
EC150 (compound concentration showing 150% relative to the control (100%)): 5.8 nM
Emax [1]: 396%

COC(=O)NC1CC=C(c2ccc(-c3nc4cc(O[C@@H]5CO[C@H]6[C@@H]5OC[C@H]6O)[nH]c4cc3F)cc2)CC1 (stereo partly shown) [Compound I-4-58]
EC150 (compound concentration showing 150% relative to the control (100%)): 4.3 nM
Emax [1]: 486%
